Assay results as given in US20070185132A1, “Cyclopropyl group substituted oxazolidinone antibiotics and derivatives thereo” (priority 2003, published 2007).
In brackets after ≈: the same amount, converted by molar mass.

Tests used:
Type in all cases: cell-based
[1] = system: Enterococcus faecium VRQR (vancomycin resistant, quinolone resistant); assay: MIC, agar dilution method, E. faecium VRQR; conditions: Mueller-Hinton agar with 5% defibrinated horse blood, 35° C., 5% CO2, 24 hours
Description: (§1) The following in vitro results were obtained based on an agar dilution method except for C. pneumoniae. The activity is presented as the minimum inhibitory concentration (MIC).
(§2) Streptococci and enterococci were tested on Mueller-Hinton agar supplemented with 5% defibrinated horse blood, using an approximate inoculum of 1×10^4 cfu/spot an incubation temperature of 35° C. in an atmosphere of 5% CO2 for 24 hours. The MIC was defined as the lowest concentration at which no visible bacterial growth was observed.

[2] = system: Streptococcus pneumoniae IID553; assay: MIC, agar dilution method, S. pneumoniae IID553; conditions: Mueller-Hinton agar with 5% defibrinated horse blood, 35° C., 5% CO2, 24 hours
Description: as §1, §2

[3] = system: Streptococcus pyogenes IID692; assay: MIC, agar dilution method, S. pyogenes IID692; conditions: Mueller-Hinton agar with 5% defibrinated horse blood, 35° C., 5% CO2, 24 hours
Description: as §1, §2

[4] = system: Staphylococcus aureus MR (methicillin resistant); assay: MIC, agar dilution method, S. aureus MR; conditions: Mueller-Hinton agar, 35° C., 24 hours
Description: as §1
(§3) S. aureus and M. catarrhalis were tested on Mueller-Hinton agar, using an approximate inoculum of 1×10^4 cfu/spot an incubation temperature of 35° C. for 24 hours. The MIC was defined as the lowest concentration at which no visible bacterial growth was observed.

[5] = system: Moraxella catarrhalis ATCC25238; assay: MIC, agar dilution method, M. catarrhalis ATCC25238; conditions: Mueller-Hinton agar, 35° C., 24 hours
Description: as §1, §3

[6] = system: Staphylococcus aureus CR (chloramphenicol resistant); assay: MIC, agar dilution method, S. aureus CR; conditions: Mueller-Hinton agar, 35° C., 24 hours
Description: as §1, §3

[7] = system: Streptococcus pneumoniae PRQR (penicillin resistant, quinolone resistant); assay: MIC, agar dilution method, S. pneumoniae PRQR; conditions: Mueller-Hinton agar with 5% defibrinated horse blood, 35° C., 5% CO2, 24 hours
Description: as §1, §2

[8] = system: Staphylococcus aureus Smith; assay: MIC, agar dilution method, S. aureus Smith; conditions: Mueller-Hinton agar, 35° C., 24 hours
Description: as §1, §3

| SMILES | MIC [1] | MIC [2] | MIC [3] | MIC [4] | MIC [5] | MIC [6] | MIC [7] | MIC [8] |
| --- | --- | --- | --- | --- | --- | --- | --- | --- |
| CC(=O)NC[C@H]1CN(c2ccc(N3CCOCC3)c(F)c2)C(=O)O1 [Linezolid, reference compound] | 2 µg/mL (≈ 5.93 µM) | 2 µg/mL (≈ 5.93 µM) | 1 µg/mL (≈ 2.96 µM) | 1 µg/mL (≈ 2.96 µM) | 4 µg/mL (≈ 11.9 µM) | 16 µg/mL (≈ 47.4 µM) | 1 µg/mL (≈ 2.96 µM) | 1 µg/mL (≈ 2.96 µM) |
| CC(=O)NC[C@H]1CN(c2ccc(-c3ccc(C4(C#N)CC4)nc3)c(F)c2)C(=O)O1 [Example 3, N-[5(S)-3-[4-[2-(1-Cyanocyclopropan-1-yl)pyridin-5-yl]-3-fluorophenyl]-2-oxooxazolidin-5-ylmethyl]acetamide] | 0.125 µg/mL (≈ 0.317 µM) | 0.125 µg/mL (≈ 0.317 µM) | 0.125 µg/mL (≈ 0.317 µM) | 0.125 µg/mL (≈ 0.317 µM) | 0.5 µg/mL (≈ 1.27 µM) | 0.5 µg/mL (≈ 1.27 µM) | 0.125 µg/mL (≈ 0.317 µM) | 0.06 µg/mL (≈ 0.152 µM) |
| N#CC1(c2ccc(-c3ccc(N4C[C@H](Cn5ccnn5)OC4=O)cc3)cn2)CC1 [Example 18, 1-[5(R)-3-[4-[2-(1-Cyanocyclopropan-1-yl)pyridin-5-yl]phenyl]-2-oxooxazolidin-5-ylmethyl]-1,2,3-triazole] | 0.125 µg/mL (≈ 0.323 µM) | 0.125 µg/mL (≈ 0.323 µM) | 0.06 µg/mL (≈ 0.155 µM) | 0.06 µg/mL (≈ 0.155 µM) | 0.5 µg/mL (≈ 1.29 µM) | 1 µg/mL (≈ 2.59 µM) | 0.125 µg/mL (≈ 0.323 µM) | 0.06 µg/mL (≈ 0.155 µM) |
| N[C@@H]1[C@H]2CN(c3ccc(-c4ccc(N5C[C@H](Cn6ccnn6)OC5=O)cc4F)cn3)C[C@@H]12 [Example 32, 1-[5(R)-3-[4-[2-[(1α,5α,6α)-6-amino-3-azabicyclo[3.1.0]hexan-3-yl]pyridin-5-yl]-3-fluorophenyl]-2-oxooxazolidin-5-ylmethyl]-1,2,3-triazole] | 0.5 µg/mL (≈ 1.15 µM) | 0.25 µg/mL (≈ 0.574 µM) | 0.125 µg/mL (≈ 0.287 µM) | 0.125 µg/mL (≈ 0.287 µM) | 2 µg/mL (≈ 4.59 µM) | 1 µg/mL (≈ 2.3 µM) | 0.125 µg/mL (≈ 0.287 µM) | 0.125 µg/mL (≈ 0.287 µM) |
| CC(=O)NC[C@H]1CN(c2ccc(-c3ccc(C4(N)CC4)nc3)cc2)C(=O)O1 [Example 5, N-[5(S)-3-[4-[2-(1-Aminocyclopropan-1-yl)pyridin-5-yl]phenyl]-2-oxooxazolidin-5-ylmethyl]acetamide] | 0.5 µg/mL (≈ 1.36 µM) | 0.5 µg/mL (≈ 1.36 µM) | 0.25 µg/mL (≈ 0.682 µM) | 0.5 µg/mL (≈ 1.36 µM) | 2 µg/mL (≈ 5.46 µM) | 2 µg/mL (≈ 5.46 µM) | 0.25 µg/mL (≈ 0.682 µM) | 0.25 µg/mL (≈ 0.682 µM) |
